Source: article PMC10943337 (Heliyon, 2024)

Biological target: α-glucosidase (EC3.2.1.20)
Experiment: p-nitrophenyl-d-glucopyranoside hydrolysis, absorbance at […] nm, pH […] °C
Format: biochemical, Saccharomyces cerevisiae
Settings: read-out: IC50 μM

COc1c(-c2ccc(O)c(O)c2)oc2c(O)c(O)ccc2c1=O [compound 1, 2-(3,4-dihydroxyphenyl)-7,8-dihydroxy-3-methoxy-4H-chromen-4-one]
IC50: 45.9 ± 1.98 µM
